# Assay results published in ChEMBL document CHEMBL1201862, “PubChem BioAssay data set” (2004).
# Activity calls are given as the source filed them.
# Columns and labels:
# Aminopeptidase N = molecular target: T1, Aminopeptidase N (Plasmodium falciparum FcB1/Columbia, UniProt O96935); assay: malaria alanyl aminopeptidase activity blockers – biochemical, fluorogenic H-Leu-NHMec substrate, 1536-well (AID 1445); set-up: species or system Plasmodium falciparum 3D7, 3D7
# T1 sequence (O96935 whole entry): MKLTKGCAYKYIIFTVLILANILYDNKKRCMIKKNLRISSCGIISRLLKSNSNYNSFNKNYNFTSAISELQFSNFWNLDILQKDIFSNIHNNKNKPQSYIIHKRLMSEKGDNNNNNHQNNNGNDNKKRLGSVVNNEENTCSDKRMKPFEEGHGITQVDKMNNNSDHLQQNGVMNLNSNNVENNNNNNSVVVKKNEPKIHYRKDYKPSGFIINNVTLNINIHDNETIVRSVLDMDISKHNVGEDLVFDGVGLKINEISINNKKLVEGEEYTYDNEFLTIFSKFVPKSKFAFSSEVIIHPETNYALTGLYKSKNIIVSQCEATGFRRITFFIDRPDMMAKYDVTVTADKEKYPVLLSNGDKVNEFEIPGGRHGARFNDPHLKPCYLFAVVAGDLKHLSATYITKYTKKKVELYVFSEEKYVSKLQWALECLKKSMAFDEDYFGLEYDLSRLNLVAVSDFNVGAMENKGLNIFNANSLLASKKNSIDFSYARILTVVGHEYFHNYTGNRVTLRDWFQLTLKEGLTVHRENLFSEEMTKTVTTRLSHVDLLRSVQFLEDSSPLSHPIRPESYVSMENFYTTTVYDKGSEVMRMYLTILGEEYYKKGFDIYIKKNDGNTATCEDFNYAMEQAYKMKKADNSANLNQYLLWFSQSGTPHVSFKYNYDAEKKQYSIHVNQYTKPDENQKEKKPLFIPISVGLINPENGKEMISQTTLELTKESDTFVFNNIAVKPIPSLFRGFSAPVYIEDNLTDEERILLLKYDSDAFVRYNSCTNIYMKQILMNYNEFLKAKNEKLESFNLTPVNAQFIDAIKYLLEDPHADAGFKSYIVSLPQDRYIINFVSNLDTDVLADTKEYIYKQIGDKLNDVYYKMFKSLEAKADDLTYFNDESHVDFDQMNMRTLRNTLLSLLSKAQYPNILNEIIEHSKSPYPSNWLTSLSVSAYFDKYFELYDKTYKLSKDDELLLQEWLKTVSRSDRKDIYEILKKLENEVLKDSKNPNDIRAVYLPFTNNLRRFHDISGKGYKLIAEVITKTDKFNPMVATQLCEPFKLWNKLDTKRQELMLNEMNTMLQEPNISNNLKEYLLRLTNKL
# [1] = molecular target: T2, Kappa-type opioid receptor (Homo sapiens, UniProt P41145); type: functional
# Beta-galactosidase = Beta-galactosidase (Escherichia coli, UniProt Q8VNN2); type: functional
# [2] = molecular target: T2, Kappa-type opioid receptor; type: functional; remark: listed apart in the source
# CHO = CHO cell viability loss, potency – luminescence, cytotoxicity control for TLR9-MyD88 binding inhibitor project, dose response (AID 588339); type: functional, cell-based, hamster; details: Cricetulus griseus;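 further: CHO cells stably coexpressing TLR9 and MyD88 fusions from primary screen; compound exposure lasted 48 hours before viability readout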
# Beta Lactamase = Beta Lactamase (Pseudomonas aeruginosa, UniProt Q932Y6); assay: BLA reporter interference, concentration series – BLA reporter cells, FRET fluorescence, artefact control for TLR9-MyD88 binding inhibitor project, dose response (AID 588341); type: cell-based;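 further: cell based assay in CHO-K1 cells stably expressing beta-lactamase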
# INS1 = assay: INS-1E survival protection against cytokine death – cell-based, luminescence, retest, dose response (AID 449756); type: functional; details: Rattus norvegicus;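 further: cell death triggered by IL-1 beta plus TNF-alpha plus IFN-gamma mixture; protective hits raise ATP signal compared with cytokine alone wells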
# [3] = molecular target: Dual specificity tyrosine-phosphorylation-regulated kinase 1A (Rattus norvegicus, UniProt Q63470); type: biochemical, Homo sapiens
# [4] = Fluorescence-based cell-based high throughput dose response assay for inhibitors of the interaction of nucleotide-binding oligomerization domain containing 2 (NOD2) and the receptor-interacting serine-threonine kinase 2 (RIPK2).; type: functional; details: Homo sapiens
# [5] = molecular target: T3, Tyrosine-protein phosphatase non-receptor type 7 (Homo sapiens, UniProt P35236); type: functional
# T3 sequence (P35236 whole entry): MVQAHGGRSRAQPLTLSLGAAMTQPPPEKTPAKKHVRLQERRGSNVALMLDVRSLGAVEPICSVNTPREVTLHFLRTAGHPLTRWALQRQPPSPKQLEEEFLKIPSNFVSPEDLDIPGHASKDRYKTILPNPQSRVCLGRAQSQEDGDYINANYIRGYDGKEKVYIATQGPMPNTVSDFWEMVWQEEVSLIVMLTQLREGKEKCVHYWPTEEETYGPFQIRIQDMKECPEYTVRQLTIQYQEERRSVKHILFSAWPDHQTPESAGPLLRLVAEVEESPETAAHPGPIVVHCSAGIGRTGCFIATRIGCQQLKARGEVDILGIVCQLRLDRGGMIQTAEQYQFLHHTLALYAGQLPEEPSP
# [6] = molecular target: T4, Tyrosine-protein phosphatase non-receptor type 22 (Homo sapiens, UniProt Q9Y2R2); assay: PTPN22 lymphoid phosphatase activity blockers – biochemical, fluorescence intensity, uHTS (AID 1779)
# T4 sequence (Q9Y2R2 whole entry): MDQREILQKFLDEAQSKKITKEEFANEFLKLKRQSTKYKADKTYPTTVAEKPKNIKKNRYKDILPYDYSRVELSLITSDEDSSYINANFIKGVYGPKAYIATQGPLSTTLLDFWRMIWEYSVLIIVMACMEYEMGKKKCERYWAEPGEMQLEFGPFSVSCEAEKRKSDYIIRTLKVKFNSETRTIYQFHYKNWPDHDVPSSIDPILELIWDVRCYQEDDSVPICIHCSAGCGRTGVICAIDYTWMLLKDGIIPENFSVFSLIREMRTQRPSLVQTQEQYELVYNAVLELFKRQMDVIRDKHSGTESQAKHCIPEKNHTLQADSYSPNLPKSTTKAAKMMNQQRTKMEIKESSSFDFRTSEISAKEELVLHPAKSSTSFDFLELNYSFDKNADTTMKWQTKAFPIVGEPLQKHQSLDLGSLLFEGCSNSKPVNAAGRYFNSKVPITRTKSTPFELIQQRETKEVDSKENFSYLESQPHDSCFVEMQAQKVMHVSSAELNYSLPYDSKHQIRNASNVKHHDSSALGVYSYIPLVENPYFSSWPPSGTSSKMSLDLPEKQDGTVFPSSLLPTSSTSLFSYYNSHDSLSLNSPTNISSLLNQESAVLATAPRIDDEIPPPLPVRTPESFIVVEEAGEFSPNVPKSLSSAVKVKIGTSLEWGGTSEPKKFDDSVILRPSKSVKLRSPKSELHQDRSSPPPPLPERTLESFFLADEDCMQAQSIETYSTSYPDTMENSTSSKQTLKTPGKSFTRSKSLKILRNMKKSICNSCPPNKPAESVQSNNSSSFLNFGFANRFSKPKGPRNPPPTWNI
# [7] = molecular target: T4, Tyrosine-protein phosphatase non-receptor type 22; type: functional
# [8] = molecular target: T4, Tyrosine-protein phosphatase non-receptor type 22; type: functional; remark: listed apart in the source
# [9] = molecular target: T5, Carboxy-terminal domain RNA polymerase II polypeptide A small phosphatase 1 (Homo sapiens, UniProt Q9GZU7); assay: CTDSP1 inhibitors, concentration-response, biochemical, absorbance readout, ultra-high-throughput screen actives (AID 540297); type: functional
# T5 sequence (Q9GZU7 whole entry): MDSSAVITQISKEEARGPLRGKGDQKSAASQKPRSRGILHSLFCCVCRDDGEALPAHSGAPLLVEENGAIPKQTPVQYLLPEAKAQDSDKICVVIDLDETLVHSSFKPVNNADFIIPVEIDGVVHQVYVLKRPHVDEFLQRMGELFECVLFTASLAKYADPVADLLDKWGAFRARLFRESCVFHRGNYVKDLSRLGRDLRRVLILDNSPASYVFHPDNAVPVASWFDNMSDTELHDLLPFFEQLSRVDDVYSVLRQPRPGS
# [10] = molecular target: Envelope glycoprotein gp160 (Human immunodeficiency virus 1, UniProt Q6QLK5); assay: cell-free HIV fusion peptide-binding blockers – biochemical, uHTS, fluorescence dequenching, […] (AID 1986)
# [11] = test system: Streptococcus sp. 'group A'; assay: Streptococcus pyogenes SK(-)GAS viability under kanamycin – luminescence, BacTiterGlo, confirmation, counter-screen for streptokinase expression inhibitor project, dose response (AID 1900); type: functional, organism-based
# [12] = CCR5-tropic HIV-1 fusion blockers – cell-based, CCR5-tropic Env, dose response (AID 2279); type: functional
# Streptococcus = assay: GAS UMAA2166 growth inhibition – luminescence, BacTiterGlo, counter-screen for streptokinase expression inhibitor project, dose response (AID 1915); type: functional, organism-based;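 further: potency for reduction of bacterial viability or growth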
# [13] = molecular target: T6, Long-chain-fatty-acid--AMP ligase FadD28 (Mycobacterium tuberculosis, UniProt P9WQ59); assay: Fluorescence polarization aasay to screen for inhibitors that compete for the binding of FadD28 to a bisubstrate Measured in Biochemical System Using Plate Reader - 2147-01_Inhibitor_Dose_CherryPick_Activity.; type: functional, Mycobacterium tuberculosis H37Rv
# T6 sequence (P9WQ59 whole entry): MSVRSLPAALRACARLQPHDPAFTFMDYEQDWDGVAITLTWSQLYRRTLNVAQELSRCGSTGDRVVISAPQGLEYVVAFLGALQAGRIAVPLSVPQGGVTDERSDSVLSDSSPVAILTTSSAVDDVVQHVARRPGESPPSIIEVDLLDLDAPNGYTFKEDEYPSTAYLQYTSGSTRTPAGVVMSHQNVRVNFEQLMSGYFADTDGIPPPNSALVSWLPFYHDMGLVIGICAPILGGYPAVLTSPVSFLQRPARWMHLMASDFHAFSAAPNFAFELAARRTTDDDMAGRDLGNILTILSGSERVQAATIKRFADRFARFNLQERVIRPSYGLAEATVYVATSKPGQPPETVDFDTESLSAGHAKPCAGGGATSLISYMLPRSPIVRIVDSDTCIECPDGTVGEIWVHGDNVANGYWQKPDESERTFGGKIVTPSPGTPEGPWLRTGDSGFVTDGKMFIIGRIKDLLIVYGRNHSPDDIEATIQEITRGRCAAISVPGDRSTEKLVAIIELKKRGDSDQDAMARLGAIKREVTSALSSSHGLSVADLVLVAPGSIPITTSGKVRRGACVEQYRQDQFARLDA
# T2 sequence (P41145 whole entry): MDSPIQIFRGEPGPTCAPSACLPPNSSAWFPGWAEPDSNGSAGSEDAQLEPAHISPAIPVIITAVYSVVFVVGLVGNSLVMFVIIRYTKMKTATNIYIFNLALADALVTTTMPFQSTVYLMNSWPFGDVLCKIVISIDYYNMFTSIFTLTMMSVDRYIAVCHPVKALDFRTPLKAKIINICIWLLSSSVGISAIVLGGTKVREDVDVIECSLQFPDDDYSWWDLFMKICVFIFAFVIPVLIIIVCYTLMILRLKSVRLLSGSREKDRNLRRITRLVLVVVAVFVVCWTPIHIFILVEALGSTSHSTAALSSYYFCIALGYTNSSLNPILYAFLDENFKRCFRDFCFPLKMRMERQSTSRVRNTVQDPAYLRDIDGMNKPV
# Chain of Beta Lactamase (Q932Y6 whole entry): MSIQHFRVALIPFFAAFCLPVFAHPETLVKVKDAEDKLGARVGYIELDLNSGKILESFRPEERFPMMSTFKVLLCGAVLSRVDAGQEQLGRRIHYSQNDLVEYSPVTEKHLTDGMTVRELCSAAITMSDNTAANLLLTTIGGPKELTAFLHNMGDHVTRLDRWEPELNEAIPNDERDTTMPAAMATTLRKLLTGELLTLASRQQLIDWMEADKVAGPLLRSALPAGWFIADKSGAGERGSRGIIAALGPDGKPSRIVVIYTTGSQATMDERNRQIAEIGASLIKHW
# Chain of Envelope glycoprotein gp160 (Q6QLK5 whole entry, the tested form may be a part): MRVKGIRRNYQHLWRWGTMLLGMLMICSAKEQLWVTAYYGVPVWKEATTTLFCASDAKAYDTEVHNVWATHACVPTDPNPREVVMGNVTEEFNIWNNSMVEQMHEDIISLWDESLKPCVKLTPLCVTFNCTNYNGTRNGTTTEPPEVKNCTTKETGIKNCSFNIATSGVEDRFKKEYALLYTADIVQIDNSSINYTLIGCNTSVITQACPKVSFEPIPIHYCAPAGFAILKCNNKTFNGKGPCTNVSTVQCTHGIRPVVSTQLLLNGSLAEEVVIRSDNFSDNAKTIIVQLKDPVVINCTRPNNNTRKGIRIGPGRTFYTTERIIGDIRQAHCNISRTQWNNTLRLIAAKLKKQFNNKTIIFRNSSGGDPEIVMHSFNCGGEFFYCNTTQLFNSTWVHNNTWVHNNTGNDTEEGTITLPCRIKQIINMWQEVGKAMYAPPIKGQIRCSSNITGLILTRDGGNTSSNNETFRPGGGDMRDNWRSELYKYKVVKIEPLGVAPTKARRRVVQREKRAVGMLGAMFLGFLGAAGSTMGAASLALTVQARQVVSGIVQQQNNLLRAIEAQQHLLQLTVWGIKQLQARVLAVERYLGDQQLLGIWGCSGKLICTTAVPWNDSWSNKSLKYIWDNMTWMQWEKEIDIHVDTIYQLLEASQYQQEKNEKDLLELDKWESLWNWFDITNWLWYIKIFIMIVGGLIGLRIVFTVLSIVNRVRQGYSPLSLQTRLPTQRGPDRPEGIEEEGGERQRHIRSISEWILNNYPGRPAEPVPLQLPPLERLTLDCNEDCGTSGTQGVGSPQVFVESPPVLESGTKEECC
# Chain of Beta-galactosidase (Q8VNN2 whole entry): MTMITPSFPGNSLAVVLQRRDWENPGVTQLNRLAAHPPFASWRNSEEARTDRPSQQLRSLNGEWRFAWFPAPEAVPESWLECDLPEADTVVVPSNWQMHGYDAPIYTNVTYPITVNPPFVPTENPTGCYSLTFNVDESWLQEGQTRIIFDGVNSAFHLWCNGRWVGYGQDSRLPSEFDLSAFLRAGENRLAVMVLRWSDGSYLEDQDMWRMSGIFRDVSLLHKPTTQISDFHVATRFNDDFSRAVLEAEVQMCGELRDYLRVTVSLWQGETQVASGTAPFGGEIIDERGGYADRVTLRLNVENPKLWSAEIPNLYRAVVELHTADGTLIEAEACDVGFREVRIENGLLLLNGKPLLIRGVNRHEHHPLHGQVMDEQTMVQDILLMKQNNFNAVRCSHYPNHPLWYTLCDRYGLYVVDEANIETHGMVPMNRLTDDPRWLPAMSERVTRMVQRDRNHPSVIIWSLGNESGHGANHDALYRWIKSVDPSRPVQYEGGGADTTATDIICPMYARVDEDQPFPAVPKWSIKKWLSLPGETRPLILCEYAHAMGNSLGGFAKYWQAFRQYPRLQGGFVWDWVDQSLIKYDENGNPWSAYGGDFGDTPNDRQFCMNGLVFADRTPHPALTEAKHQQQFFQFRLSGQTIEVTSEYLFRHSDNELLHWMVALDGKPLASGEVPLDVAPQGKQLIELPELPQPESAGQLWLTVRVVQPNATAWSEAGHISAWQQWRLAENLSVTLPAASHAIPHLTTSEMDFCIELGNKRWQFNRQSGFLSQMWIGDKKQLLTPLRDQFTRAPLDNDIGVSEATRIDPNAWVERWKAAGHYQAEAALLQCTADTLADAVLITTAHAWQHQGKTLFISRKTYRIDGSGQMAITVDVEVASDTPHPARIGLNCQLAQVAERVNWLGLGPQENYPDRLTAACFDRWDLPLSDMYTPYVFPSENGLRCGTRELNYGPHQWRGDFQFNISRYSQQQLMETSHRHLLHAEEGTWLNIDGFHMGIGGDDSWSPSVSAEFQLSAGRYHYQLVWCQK
compound,measurement,setting,value
N#CC(C#N)=C1C=CC=CN1/C(=C\c1ccco1)C(=O)c1ccccc1,IC50,Aminopeptidase N,65.2 µM (active)
same,IC50,[1],4.86 µM (active)
same,EC50,Beta-galactosidase,> 31.5 µM (inactive)
same,IC50,[2],18.9 µM
same,IC50,CHO,1.64 µM (active)
same,IC50,Beta Lactamase,15.9 µM (inactive)
same,AC50,INS1,7.4 µM (active)
same,AC50,[3],5.46 µM (active)
same,IC50,[4],1.02 µM (active)
CCOc1cc(/C=C2/NC(=O)NC2=O)cc(Br)c1OCc1ccc(C(=O)O)cc1,IC50,[5],4.2 µM (active)
same,IC50,[6],8.82 µM (active)
same,IC50,[7],5.76 µM (active)
same,IC50,[8],2.39 µM (active)
same,IC50,[9],5.9 µM (active)
Oc1cc(-c2ccccc2)nc2c(-c3ccccc3)c(C(F)(F)F)nn12,IC50,[10],17.5 µM (active)
same,EC50,[11],3.47 µM (active)
same,IC50,[12],> 50 µM (active)
same,EC50,Streptococcus,4.84 µM (active)
same,AC50,[13],54.1 µM (active)
